Assay results from PMC11822212, “High-throughput screening identifies Aurora kinase B as a critical therapeutic target for Merkel cell carcinoma” (Nature Communications, 2025).
Structures can show the parent of a compound that is named as a salt.

Key:
[1] = tested on: WAGA cells (VP-MCC); assay: qHTS cell viability (CellTiter-Glo, 72 h; primary and follow-up small molecule screen); format: cell-based, human
[2] = tested on: HACAT cells; assay: qHTS cell viability (CellTiter-Glo, 72 h; primary screen), control cell line; format: cell-based, human
[3] = tested on: VN-MCC cell lines (MCC13, MCC26, UISO); assay: qHTS cell viability, VN-MCC cell lines as a group (mean AUC, VN.MCC.avg); format: cell-based, human; conditions: for VN-MCC_Avg_AUC: mean AUC of VN-MCC cell lines
[4] = tested on: six MCC cell lines and four control cell lines; assay: qHTS cell viability, all 10 cell lines screened; format: cell-based
[5] = tested on: MKL-2 cells (VP-MCC); assay: qHTS cell viability (CellTiter-Glo, 72 h; primary and follow-up small molecule screen); format: cell-based, human
[6] = tested on: control cell lines (HACAT, HEK293T, CRL-7250, NIH-3T3); assay: qHTS cell viability, control cell lines as a group (mean AUC, Control.avg); format: cell-based; conditions: mean AUC of control cell lines
[7] = tested on: VP-MCC cell lines (WAGA, MKL-1, MKL-2); assay: qHTS cell viability, VP-MCC cell lines as a group (mean AUC, VP.MCC.avg); format: cell-based, human; conditions: for VP-MCC_Avg_AUC: mean AUC of VP-MCC cell lines
[8] = tested on: HEK293T cells; assay: qHTS cell viability (CellTiter-Glo, 72 h; primary screen), control cell line; format: cell-based, human
[9] = tested on: MCC cell lines (WAGA, MKL-1, MKL-2, MCC13, MCC26, UISO); assay: qHTS cell viability, all six MCC cell lines as a group (mean AUC, MCC.avg); format: cell-based, human; conditions: mean AUC of six MCC cell lines
[10] = tested on: NIH-3T3 cells; assay: qHTS cell viability (CellTiter-Glo, 72 h; primary screen), control cell line; format: cell-based, mouse
[11] = tested on: CRL-7250 cells; assay: as above; format: cell-based
[12] = tested on: UISO cells (VN-MCC); assay: qHTS cell viability (CellTiter-Glo, 72 h; primary and follow-up small molecule screen); format: cell-based, human
[13] = tested on: MKL-1 cells (VP-MCC); assay: as above; format: cell-based, human
[14] = tested on: MCC13 cells (VN-MCC); assay: as above; format: cell-based, human; conditions: MIPE library, 11-point DRC
[15] = tested on: MCC26 cells (VN-MCC); assay: as above; format: cell-based, human
[16] = MIPE library, 11-point DRC, sheet S2D
[17] = MIPE library, 11-point DRC, sheet S2E
[18] = MIPE library, 11-point DRC, control cell line, sheet S2D
[19] = MIPE library, 11-point DRC, control cell line, sheet S2E
[20] = MIPE library, Control AUC minus VN-MCC AUC (therapeutic window), sheet S2D
[21] = MIPE library, Control AUC minus VN-MCC AUC (therapeutic window), sheet S2E
[22] = MIPE library, Control AUC minus MCC AUC (therapeutic window), sheet S2D
[23] = MIPE library, Control AUC minus MCC AUC (therapeutic window), sheet S2E
[24] = MIPE library, Control AUC minus VP-MCC AUC (therapeutic window), sheet S2D
[25] = MIPE library, Control AUC minus VP-MCC AUC (therapeutic window), sheet S2E

## CC[C@@]1(O)C(=O)OCc2c1cc1n(c2=O)Cc2cc3c(CN(C)C)c(O)ccc3nc2-1 [Topotecan HCl]
[1]; [16]
  WAGA_AUC: 175.987
[1]; [17]
  WAGA_AUC: 175.987
[1]; NPC library, qHTS dose-response AUC, WAGA
  WAGA_AUC: 138.765
[1]; follow-up screen, WAGA, replicate 1
  Area under the dose-response curve (AUC) WAGA Replicate 1: 206.9
[1]; follow-up screen, WAGA, replicate 2
  Area under the dose-response curve (AUC) WAGA Replicate 2: 188.0
[1]; follow-up screen, WAGA, replicate 3
  Area under the dose-response curve (AUC) WAGA Replicate 3: 185.4
[2]; [18]
  HACAT_AUC: 331.992
[2]; [19]
  HACAT_AUC: 331.992
[2]; NPC library, qHTS dose-response AUC, HACAT control
  HACAT_AUC: 242.195
[3]; [20]
  Control-VN-MCC: 42.4232
[3]; [21]
  Control-VN-MCC: 42.4232
[3]; MIPE library, sheet S2D
  VN-MCC_Avg_AUC: 302.701
[3]; MIPE library, sheet S2E
  VN-MCC_Avg_AUC: 302.701
[3]; NPC library
  VN-MCC_Avg_AUC: 272.239
[3]; NPC library, therapeutic window: Control avg AUC minus VN-MCC avg AUC
  Control-VN-MCC: 28.4215
[4]; [22]
  Control-MCC: 77.6607
[4]; [23]
  Control-MCC: 77.6607
[4]; NPC library, therapeutic window: Control avg AUC minus MCC avg AUC
  Control-MCC: 81.3959
[5]; [16]
  MKL2_AUC: 250.703
[5]; [17]
  MKL2_AUC: 250.703
[5]; NPC library, qHTS dose-response AUC, MKL2
  MKL2_AUC: 174.677
[5]; follow-up screen, MKL-2, replicate 1
  Area under the dose-response curve (AUC) MKL-2 Replicate 1: 184.1
[5]; follow-up screen, MKL-2, replicate 2
  Area under the dose-response curve (AUC) MKL-2 Replicate 2: 181.9
[5]; follow-up screen, MKL-2, replicate 3
  Area under the dose-response curve (AUC) MKL-2 Replicate 3: 262.9
[6]; MIPE library, sheet S2D
  Control_Avg_AUC: 345.124
[6]; MIPE library, sheet S2E
  Control_Avg_AUC: 345.124
[6]; NPC library
  Control_Avg_AUC: 300.661
[7]; [24]
  Control-VP-MCC: 112.898
[7]; [25]
  Control-VP-MCC: 112.898
[7]; MIPE library, sheet S2D
  VP-MCC_Avg_AUC: 232.226
[7]; MIPE library, sheet S2E
  VP-MCC_Avg_AUC: 232.226
[7]; NPC library
  VP-MCC_Avg_AUC: 166.29
[7]; NPC library, therapeutic window: Control avg AUC minus VP-MCC avg AUC
  Control-VP-MCC: 134.37
[8]; [18]
  HEK293T_AUC: 287.732
[8]; [19]
  HEK293T_AUC: 287.732
[8]; NPC library, qHTS dose-response AUC, HEK293T control
  HEK293T_AUC: 225.562
[9]; MIPE library, sheet S2D
  MCC_Avg_AUC: 267.463
[9]; MIPE library, sheet S2E
  MCC_Avg_AUC: 267.463
[9]; NPC library
  MCC_Avg_AUC: 219.265
[10]; [18]
  NIH3T3_AUC: 368.835
[10]; [19]
  NIH3T3_AUC: 368.835
[10]; NPC library, qHTS dose-response AUC, NIH3T3 control
  NIH3T3_AUC: 374.778
[11]; [18]
  CRL7250_AUC: 391.937
[11]; [19]
  CRL7250_AUC: 391.937
[11]; NPC library, qHTS dose-response AUC, CRL7250 control
  CRL7250_AUC: 360.108
[12]; [16]
  UISO_AUC: 243.367
[12]; [17]
  UISO_AUC: 243.367
[12]; NPC library, qHTS dose-response AUC, UISO
  UISO_AUC: 244.938
[12]; follow-up screen, UISO, replicate 1
  Area under the dose-response curve (AUC) UISO Replicate 1: 203.8
[12]; follow-up screen, UISO, replicate 2
  Area under the dose-response curve (AUC) UISO Replicate 2: 226.9
[12]; follow-up screen, UISO, replicate 3
  Area under the dose-response curve (AUC) UISO Replicate 3: 223.1
[13]; [16]
  MKL1_AUC: 269.988
[13]; [17]
  MKL1_AUC: 269.988
[13]; NPC library, qHTS dose-response AUC, MKL1
  MKL1_AUC: 185.429
[13]; follow-up screen, MKL-1, replicate 1
  Area under the dose-response curve (AUC) MKL-1 Replicate 1: 222.0
[13]; follow-up screen, MKL-1, replicate 2
  Area under the dose-response curve (AUC) MKL-1 Replicate 2: 224.3
[13]; follow-up screen, MKL-1, replicate 3
  Area under the dose-response curve (AUC) MKL-1 Replicate 3: 226.9
[14]; sheet S2D
  MCC13_AUC: 336.51
[14]; sheet S2E
  MCC13_AUC: 336.51
[15]; [16]
  MCC26_AUC: 328.226
[15]; [17]
  MCC26_AUC: 328.226
[15]; NPC library, qHTS dose-response AUC, MCC26
  MCC26_AUC: 267.734
[15]; follow-up screen, MCC26, replicate 1
  Area under the dose-response curve (AUC) MCC26 Replicate 1: 273.0
[15]; follow-up screen, MCC26, replicate 2
  Area under the dose-response curve (AUC) MCC26 Replicate 2: 257.6
[15]; follow-up screen, MCC26, replicate 3
  Area under the dose-response curve (AUC) MCC26 Replicate 3: 280.5

## C=Cc1c(C)c2cc3nc(cc4[nH]c(cc5nc(cc1[nH]2)C(C)=C5CCC(=O)O)c(CCC(=O)OC)c4C)[C@@]1(C)C3=CC=C(C(=O)OC)[C@H]1C(=O)OC [Verteporfin]
[1]; [16]
  WAGA_AUC: 266.998
[1]; [17]
  WAGA_AUC: 266.998
[2]; [18]
  HACAT_AUC: 478.04
[2]; [19]
  HACAT_AUC: 478.04
[3]; [20]
  Control-VN-MCC: 93.5089
[3]; [21]
  Control-VN-MCC: 93.5089
[3]; MIPE library, sheet S2D
  VN-MCC_Avg_AUC: 369.774
[3]; MIPE library, sheet S2E
  VN-MCC_Avg_AUC: 369.774
[4]; [22]
  Control-MCC: 151.157
[4]; [23]
  Control-MCC: 151.157
[5]; [16]
  MKL2_AUC: 217.219
[5]; [17]
  MKL2_AUC: 217.219
[6]; MIPE library, sheet S2D
  Control_Avg_AUC: 463.283
[6]; MIPE library, sheet S2E
  Control_Avg_AUC: 463.283
[7]; [24]
  Control-VP-MCC: 208.806
[7]; [25]
  Control-VP-MCC: 208.806
[7]; MIPE library, sheet S2D
  VP-MCC_Avg_AUC: 254.477
[7]; MIPE library, sheet S2E
  VP-MCC_Avg_AUC: 254.477
[8]; [18]
  HEK293T_AUC: 435.497
[8]; [19]
  HEK293T_AUC: 435.497
[9]; MIPE library, sheet S2D
  MCC_Avg_AUC: 312.125
[9]; MIPE library, sheet S2E
  MCC_Avg_AUC: 312.125
[10]; [18]
  NIH3T3_AUC: 474.512
[10]; [19]
  NIH3T3_AUC: 474.512
[11]; [18]
  CRL7250_AUC: 465.081
[11]; [19]
  CRL7250_AUC: 465.081
[12]; [16]
  UISO_AUC: 271.383
[12]; [17]
  UISO_AUC: 271.383
[13]; [16]
  MKL1_AUC: 279.212
[13]; [17]
  MKL1_AUC: 279.212
[14]; sheet S2D
  MCC13_AUC: 440.785
[14]; sheet S2E
  MCC13_AUC: 440.785
[15]; [16]
  MCC26_AUC: 397.153
[15]; [17]
  MCC26_AUC: 397.153
